Consider one molecule from PMC5218480 (PLoS ONE, 2017).

In the assay the test system is MV-4-11 cells. Description: Gene expression microarray analysis (Affymetrix PrimeView) and GSEA. The format is cell-based, human. More on the design: RFU PODN (11730768_x_at) / Fold change /veh PODN (11730768_x_at) / RFU LINC00158 (11744669_a_at) / Fold change /veh LINC00158 (11744669_a_at) / RFU DUSP10 (11751237_a_at) / Fold change /veh DUSP10 (11751237_a_at) / RFU ID3 (11757404_x_at) / Fold change /veh ID3 (11757404_x_at) / RFU PLEKHG5 (11737974_s_at) / Fold change /veh PLEKHG5 (11737974_s_at) / RFU LRRC4B (11730491_at) / Fold change /veh LRRC4B (11730491_at) / RFU GIMAP4 (11747438_a_at) / Fold change /veh GIMAP4 (11747438_a_at) / RFU KRT8 (11758183_x_at) / Fold change /veh KRT8 (11758183_x_at) / RFU CNN1 (11734310_a_at) / Fold change /veh CNN1 (11734310_a_at) / RFU VPS37D (11726825_at) / Fold change /veh VPS37D (11726825_at) / RFU C10orf10 (11716522_x_at) / Fold change /veh C10orf10 (11716522_x_at) / RFU KIR2DL2 /// KIR2DL4 /// KIR2DL5A /// KIR2DL5B /// KIR2DS1 /// KIR2DS2 /// KIR2DS3 /// KIR2DS4 /// KIR3DL3 /// KIR3DL3 /// KIR3DS1 (11738374_at) / Fold change /veh KIR2DL2 /// KIR2DL4 /// KIR2DL5A /// KIR2DL5B /// KIR2DS1 /// KIR2DS2 /// KIR2DS3 /// KIR2DS4 /// KIR3DL3 /// KIR3DL3 /// KIR3DS1 (11738374_at) / RFU C1QL1 (11718748_at) / Fold change /veh C1QL1 (11718748_at) / RFU TMPRSS4 (11747572_a_at) / Fold change /veh TMPRSS4 (11747572_a_at) / RFU HAMP (11756126_x_at) / Fold change /veh HAMP (11756126_x_at) / RFU RNFT2 (11725882_a_at) / Fold change /veh RNFT2 (11725882_a_at) / RFU NR4A2 (11747474_a_at) / Fold change /veh NR4A2 (11747474_a_at) / RFU ABCC12 (11746883_a_at) / Fold change /veh ABCC12 (11746883_a_at) / RFU TMEM136 (11760407_x_at) / Fold change /veh TMEM136 (11760407_x_at) / RFU CLDN22 /// WWC2 (11732394_at) / Fold change /veh CLDN22 /// WWC2 (11732394_at) / RFU HLA-DPB1 (11760878_x_at) / Fold change /veh HLA-DPB1 (11760878_x_at) / RFU SPINT1 (11716480_a_at) / Fold change /veh SPINT1 (11716480_a_at) / RFU GAP43 (11754022_s_at) / Fold change /veh GAP43 (11754022_s_at) / RFU A4GNT (11735810_at) / Fold change /veh A4GNT (11735810_at) / RFU PRB3 (11715151_x_at) / Fold change /veh PRB3 (11715151_x_at) / RFU TUBB4B (11761932_at) / Fold change /veh TUBB4B (11761932_at) / RFU CAPN14 (11732068_a_at) / Fold change /veh CAPN14 (11732068_a_at) / RFU TMCC2 (11721928_a_at) / Fold change /veh TMCC2 (11721928_a_at) / RFU IRGQ (11745062_a_at) / Fold change /veh IRGQ (11745062_a_at) / RFU FAM174B (11720279_a_at) / Fold change /veh FAM174B (11720279_a_at) / RFU TMPRSS4 (11748680_a_at) / Fold change /veh TMPRSS4 (11748680_a_at) / RFU FAM212B (11763350_a_at) / Fold change /veh FAM212B (11763350_a_at) / RFU PLEKHG5 (11743358_a_at) / Fold change /veh PLEKHG5 (11743358_a_at) / RFU ZSCAN30 (11745921_a_at) / Fold change /veh ZSCAN30 (11745921_a_at) / RFU CMKLR1 (11741424_a_at) / Fold change /veh CMKLR1 (11741424_a_at) / RFU LOC101060620 /// MAPK8IP1 (11723275_at) / Fold change /veh LOC101060620 /// MAPK8IP1 (11723275_at) / RFU SPTSSB (11747773_x_at) / Fold change /veh SPTSSB (11747773_x_at) / RFU PRSS12 (11739890_at) / Fold change /veh PRSS12 (11739890_at) / RFU BIN1 (11741810_x_at) / Fold change /veh BIN1 (11741810_x_at) / RFU WNT11 (11732464_a_at) / Fold change /veh WNT11 (11732464_a_at) / RFU C10orf10 (11716521_a_at) / Fold change /veh C10orf10 (11716521_a_at) / RFU C5orf56 (11738089_at) / Fold change /veh C5orf56 (11738089_at) / RFU CYB561 (11721691_x_at) / Fold change /veh CYB561 (11721691_x_at) / RFU ANKRD19P (11752326_a_at) / Fold change /veh ANKRD19P (11752326_a_at) / RFU OR2T12 /// OR2T33 /// OR2T8 (11738714_s_at) / Fold change /veh OR2T12 /// OR2T33 /// OR2T8 (11738714_s_at) / RFU VCAN (11748164_a_at) / Fold change /veh VCAN (11748164_a_at) / RFU JSRP1 (11732532_at) / Fold change /veh JSRP1 (11732532_at) / RFU KRTAP10-11 (11738290_x_at) / Fold change /veh KRTAP10-11 (11738290_x_at) / RFU MYO3A (11730013_a_at) / Fold change /veh MYO3A (11730013_a_at) / RFU EBF3 (11725865_a_at) / Fold change /veh EBF3 (11725865_a_at) / RFU CAMK2N1 (11719241_x_at) / Fold change /veh CAMK2N1 (11719241_x_at) / RFU C5orf56 (11738088_a_at) / Fold change /veh C5orf56 (11738088_a_at) / RFU OLFML3 (11715873_a_at) / Fold change /veh OLFML3 (11715873_a_at) / RFU LOC100653217 /// NTM (11731650_a_at) / Fold change /veh LOC100653217 /// NTM (11731650_a_at) / RFU MAPK11 (11762145_a_at) / Fold change /veh MAPK11 (11762145_a_at) / RFU FIZ1 (11724087_x_at) / Fold change /veh FIZ1 (11724087_x_at) / RFU OASL (11726364_x_at) / Fold change /veh OASL (11726364_x_at) / RFU SOX15 (11748057_x_at) / Fold change /veh SOX15 (11748057_x_at) / RFU CD79A (11719716_a_at) / Fold change /veh CD79A (11719716_a_at) / RFU HIST1H1D (11736915_at) / Fold change /veh HIST1H1D (11736915_at) / RFU CASKIN2 (11723855_a_at) / Fold change /veh CASKIN2 (11723855_a_at) / RFU LOC730098 (11760151_x_at) / Fold change /veh LOC730098 (11760151_x_at) / RFU OR4N2 (11742367_at) / Fold change /veh OR4N2 (11742367_at) / RFU PRRT2 (11749266_a_at) / Fold change /veh PRRT2 (11749266_a_at) / RFU SNX32 (11753110_a_at) / Fold change /veh SNX32 (11753110_a_at) / RFU CDHR5 (11726645_a_at) / Fold change /veh CDHR5 (11726645_a_at) / RFU RCAN1 (11760418_a_at) / Fold change /veh RCAN1 (11760418_a_at) / RFU FAM167A (11723789_a_at) / Fold change /veh FAM167A (11723789_a_at) / RFU FAM26E (11764081_at) / Fold change /veh FAM26E (11764081_at) / RFU ISYNA1 (11749810_s_at) / Fold change /veh ISYNA1 (11749810_s_at) / RFU ACY1 (11761880_at) / Fold change /veh ACY1 (11761880_at) / RFU 11764098_at / Fold change /veh 11764098_at / RFU SAMD14 (11745864_x_at) / Fold change /veh SAMD14 (11745864_x_at) / RFU NPB (11741838_a_at) / Fold change /veh NPB (11741838_a_at) / RFU TMPRSS6 (11731388_a_at) / Fold change /veh TMPRSS6 (11731388_a_at) / RFU KRTAP10-2 (11738614_at) / Fold change /veh KRTAP10-2 (11738614_at) / RFU ARHGAP8 /// PRR5-ARHGAP8 (11727945_x_at) / Fold change /veh ARHGAP8 /// PRR5-ARHGAP8 (11727945_x_at) / RFU KRTAP5-7 /// NADSYN1 (11734609_at) / Fold change /veh KRTAP5-7 /// NADSYN1 (11734609_at) / RFU RASL12 (11751679_a_at) / Fold change /veh RASL12 (11751679_a_at) / RFU CDKN2B (11736163_a_at) / Fold change /veh CDKN2B (11736163_a_at) / RFU PRF1 (11729649_at) / Fold change /veh PRF1 (11729649_at) / RFU, ZNF638 /// ZNF638-IT1 / Fold change vs veh, ZNF638 /// ZNF638-IT1 / RFU, PANK3 / Fold change vs veh, PANK3 / RFU, SH3YL1 / Fold change vs veh, SH3YL1 / RFU, ZEB2 / Fold change vs veh, ZEB2 / RFU, NRIP1 / Fold change vs veh, NRIP1 / RFU, PTTG1IP / Fold change vs veh, PTTG1IP / RFU, CAPN2 / Fold change vs veh, CAPN2 / RFU, MED14 / Fold change vs veh, MED14 / RFU, SNORA58 / Fold change vs veh, SNORA58 / RFU, C1orf63 / Fold change vs veh, C1orf63 / RFU, LRRFIP1 / Fold change vs veh, LRRFIP1 / RFU, NDUFAF7 / Fold change vs veh, NDUFAF7 / RFU, SLC12A2 / Fold change vs veh, SLC12A2 / RFU, IBTK / Fold change vs veh, IBTK / RFU, ESF1 / Fold change vs veh, ESF1 / Fold change vs veh, TMEM50B / RFU, TAOK1 / Fold change vs veh, TAOK1 / RFU, ACBD3 / Fold change vs veh, ACBD3 / RFU, TMA16 / Fold change vs veh, TMA16 / RFU, RWDD3 / Fold change vs veh, RWDD3 / RFU, BCAT1 / Fold change vs veh, BCAT1 / RFU, EDEM3 / Fold change vs veh, EDEM3 / RFU, TMEM33 / Fold change vs veh, TMEM33 / RFU, WDR75 / Fold change vs veh, WDR75 / RFU, AHCTF1 / Fold change vs veh, AHCTF1 / RFU, TFRC / Fold change vs veh, TFRC / RFU, ZDHHC17 / Fold change vs veh, ZDHHC17 / RFU, NOM1 / Fold change vs veh, NOM1 / RFU, ARL8B / Fold change vs veh, ARL8B / RFU, ZBTB11 / Fold change vs veh, ZBTB11 / RFU, TAMM41 / Fold change vs veh, TAMM41 / RFU, KIAA1704 /// LOC100996395 / Fold change vs veh, KIAA1704 /// LOC100996395 / RFU, ING1 / Fold change vs veh, ING1 / RFU, TRMT61B / Fold change vs veh, TRMT61B / RFU, FUBP3 / Fold change vs veh, FUBP3 / RFU, TP53 / Fold change vs veh, TP53 / RFU, TNKS2 / Fold change vs veh, TNKS2 / RFU, ZFP14 / Fold change vs veh, ZFP14 / RFU, ACTR2 / Fold change vs veh, ACTR2 / RFU, PPP3R1 / Fold change vs veh, PPP3R1 / RFU, PIK3R1 / Fold change vs veh, PIK3R1 / RFU, HNRNPA1 / Fold change vs veh, HNRNPA1 / RFU, RNF170 / Fold change vs veh, RNF170 / RFU, ZNF28 / Fold change vs veh, ZNF28 / RFU, RNGTT / Fold change vs veh, RNGTT / RFU, OGT / Fold change vs veh, OGT / RFU, BRD1 / Fold change vs veh, BRD1 / RFU, MARS / Fold change vs veh, MARS / RFU, ZNF655 / Fold change vs veh, ZNF655 / RFU, FAHD1 / Fold change vs veh, FAHD1 / RFU, BDP1 / Fold change vs veh, BDP1 / RFU, LRRCC1 / Fold change vs veh, LRRCC1 / RFU, ARID1A / Fold change vs veh, ARID1A / RFU, ZNF146 / Fold change vs veh, ZNF146 / RFU, ZNF330 / Fold change vs veh, ZNF330 / RFU, GPN3 / Fold change vs veh, GPN3 / RFU, C9orf123 / Fold change vs veh, C9orf123 / RFU, N4BP2L2 / Fold change vs veh, N4BP2L2 / RFU, ARFIP1 / Fold change vs veh, ARFIP1 / RFU, FAM179B / Fold change vs veh, FAM179B / RFU, BCL10 / Fold change vs veh, BCL10 / RFU, UHRF1BP1L / Fold change vs veh, UHRF1BP1L / RFU, BET1 / Fold change vs veh, BET1 / RFU, CNOT2 / Fold change vs veh, CNOT2 / RFU, ZNF268 / Fold change vs veh, ZNF268 / Fold change vs veh, ZNF507 / RFU, DGCR2 / Fold change vs veh, DGCR2 / RFU, WDSUB1 / Fold change vs veh, WDSUB1 / Fold change vs veh, HSP90B1 /// MIR3652 / RFU, ADSS / Fold change vs veh, ADSS / RFU, GK / Fold change vs veh, GK / RFU, ZNF148 / Fold change vs veh, ZNF148 / RFU, TAF9 / Fold change vs veh, TAF9 / RFU, SLC1A5 / Fold change vs veh, SLC1A5 / RFU, SLMO2 / Fold change vs veh, SLMO2 / RFU, ABCC4 / Fold change vs veh, ABCC4 / RFU, LOC101060439 /// RAP1B / Fold change vs veh, LOC101060439 /// RAP1B / RFU, RFX7 / Fold change vs veh, RFX7 / RFU, GTPBP10 / Fold change vs veh, GTPBP10 / RFU, CNEP1R1 / Fold change vs veh, CNEP1R1 / RFU, BIVM-ERCC5 /// ERCC5 / Fold change vs veh, BIVM-ERCC5 /// ERCC5 / RFU, ILF3 / Fold change vs veh, ILF3 / RFU 11762660_at / Fold change /veh 11762660_at / RFU VCAN (11757783_s_at) / Fold change /veh VCAN (11757783_s_at) / RFU DDX43 (11728927_at) / Fold change /veh DDX43 (11728927_at) / RFU KRT8 (11758188_x_at) / Fold change /veh KRT8 (11758188_x_at) / RFU NKD1 (11759106_at) / Fold change /veh NKD1 (11759106_at) / RFU SRD5A1 (11742802_a_at) / Fold change /veh SRD5A1 (11742802_a_at) / RFU TPSAB1 /// TPSB2 (11721975_s_at) / Fold change /veh TPSAB1 /// TPSB2 (11721975_s_at) / RFU GSTM3 (11746129_a_at) / Fold change /veh GSTM3 (11746129_a_at) / RFU IL23R (11737362_x_at) / Fold change /veh IL23R (11737362_x_at) / RFU TMEM51 (11727254_a_at) / Fold change /veh TMEM51 (11727254_a_at) / RFU PIWIL2 (11732686_x_at) / Fold change /veh PIWIL2 (11732686_x_at) / RFU ORM1 (11744905_x_at) / Fold change /veh ORM1 (11744905_x_at) / RFU CCDC152 (11743942_at) / Fold change /veh CCDC152 (11743942_at) / RFU ECM1 (11717891_a_at) / Fold change /veh ECM1 (11717891_a_at) / RFU IL23R (11748794_a_at) / Fold change /veh IL23R (11748794_a_at) / RFU TNFAIP8L3 (11732012_x_at) / Fold change /veh TNFAIP8L3 (11732012_x_at) / RFU MBOAT4 (11741988_at) / Fold change /veh MBOAT4 (11741988_at) / RFU 11764193_at / Fold change /veh 11764193_at / RFU TMEM53 (11763286_at) / Fold change /veh TMEM53 (11763286_at) / RFU MAGEB2 (11727129_at) / Fold change /veh MAGEB2 (11727129_at) / RFU TMEM200A (11744735_a_at) / Fold change /veh TMEM200A (11744735_a_at) / RFU CCDC152 (11751479_a_at) / Fold change /veh CCDC152 (11751479_a_at) / RFU FAM211A (11726209_a_at) / Fold change /veh FAM211A (11726209_a_at) / RFU RGS16 (11746705_a_at) / Fold change /veh RGS16 (11746705_a_at) / RFU VCAN (11755009_s_at) / Fold change /veh VCAN (11755009_s_at) / RFU RHOB (11743442_s_at) / Fold change /veh RHOB (11743442_s_at) / RFU RGS16 (11720943_a_at) / Fold change /veh RGS16 (11720943_a_at) / RFU RGS16 (11720944_at) / Fold change /veh RGS16 (11720944_at) / RFU, VPS4B / Fold change vs veh, VPS4B / RFU, CREB1 / Fold change vs veh, CREB1 / RFU, DNAJC13 / Fold change vs veh, DNAJC13 / RFU, GNAQ / Fold change vs veh, GNAQ / RFU, CDK5R1 / Fold change vs veh, CDK5R1 / RFU, ZRANB3 / Fold change vs veh, ZRANB3 / RFU, CUL4A / Fold change vs veh, CUL4A / RFU, CCNY / Fold change vs veh, CCNY / RFU, UFL1 / Fold change vs veh, UFL1 / RFU, COG3 / Fold change vs veh, COG3 / RFU, DIAPH2 / Fold change vs veh, DIAPH2 / RFU, SKA2 / Fold change vs veh, SKA2 / RFU, AFF3 / Fold change vs veh, AFF3 / RFU, LMF1 / Fold change vs veh, LMF1 / RFU, IPO11 / Fold change vs veh, IPO11 / RFU, DFFB / Fold change vs veh, DFFB / RFU, FOXP1 / Fold change vs veh, FOXP1 / RFU, CARD8 / Fold change vs veh, CARD8 / RFU, STRN3 / Fold change vs veh, STRN3 / RFU, ADK / Fold change vs veh, ADK / RFU, RASSF2 / Fold change vs veh, RASSF2 / RFU, WIPF1 / Fold change vs veh, WIPF1 / RFU, LARP1B / Fold change vs veh, LARP1B / RFU, RASA1 / Fold change vs veh, RASA1 / RFU, RB1 / Fold change vs veh, RB1 / RFU, PPFIA1 / Fold change vs veh, PPFIA1 / RFU, MAT2A / Fold change vs veh, MAT2A / RFU, CCT5 / Fold change vs veh, CCT5 / RFU, WDR92 / Fold change vs veh, WDR92 / RFU, CUX1 / Fold change vs veh, CUX1 / RFU, TTC7A / Fold change vs veh, TTC7A / RFU, TMEM135 / Fold change vs veh, TMEM135 / RFU, DEPTOR / Fold change vs veh, DEPTOR / RFU, CPM / Fold change vs veh, CPM / RFU, DNAJB6 / Fold change vs veh, DNAJB6 / RFU, CACNA2D3 / Fold change vs veh, CACNA2D3 / RFU, DTX4 / Fold change vs veh, DTX4 / RFU, TFCP2 / Fold change vs veh, TFCP2 / RFU, GMCL1 /// GMCL1P1 / Fold change vs veh, GMCL1 /// GMCL1P1 / RFU, AEBP2 / Fold change vs veh, AEBP2 / RFU, SNHG1 /// SNORD22 /// SNORD25 /// SNORD26 /// SNORD27 /// SNORD28 /// SNORD29 /// SNORD31 / Fold change vs veh, SNHG1 /// SNORD22 /// SNORD25 /// SNORD26 /// SNORD27 /// SNORD28 /// SNORD29 /// SNORD31 / Fold change (Aza/veh), C12orf56 (ProbeSet 11735607_a_at) / Fold change (ACY-1035/veh), C12orf56 (ProbeSet 11735607_a_at) / Fold change (Aza/veh), FGFR1OP (ProbeSet 11751329_s_at) / Fold change (ACY-1035/veh), FGFR1OP (ProbeSet 11751329_s_at) / Fold change (Aza/veh), VPS36 (ProbeSet 11739960_a_at) / Fold change (ACY-1035/veh), VPS36 (ProbeSet 11739960_a_at) / RFU SYPL1 (11715823_x_at) / Fold change /veh SYPL1 (11715823_x_at) / RFU IGFBP7 (11715501_s_at) / Fold change /veh IGFBP7 (11715501_s_at) / RFU REEP3 (11722064_at) / Fold change /veh REEP3 (11722064_at) / RFU IGLL1 (11728026_x_at) / Fold change /veh IGLL1 (11728026_x_at): dose or concentration left out as unconfirmed. As to conditions: ProbeSet 11725141_a_at; LIST B.

Molecules are shown by their SMILES.

In the case of `Nc1ccc(-c2cccs2)cc1NC(=O)c1ccc2c(c1)cc(C1CC1)n2CCN1CCOCC1` [ACY-1035], the “Fold change vs veh, FUBP3” value stood at 0.87.
